Results: ChEMBL document CHEMBL1201862, “PubChem BioAssay data set” (2004)
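Results reflect a 48-hour exposure of cells in 96-well plates to compound at five concentrations. Abbreviation: GI50, concentration required for 50% inhibition of growth.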 Active and inactive are the calls of the source. No stated cut-off is given here; in the data, active = GI50 up to about 1.1 µM and inactive = higher.

Experiments:
Test in all cases: inhibition of tumour cell growth, NCI panel, 48 h
[1] = system: HOP-92
[2] = system: NCI-H522
[3] = system: MCF7
[4] = system: NCI-H460
[5] = system: SF-268
[6] = system: SW-620
[7] = system: SN12C
[8] = system: MDA-MB-231
[9] = system: OVCAR-4
[10] = system: HCT-116
[11] = system: EKVX
[12] = system: NCI-H23
[13] = system: SK-MEL-5
[14] = system: SK-OV-3
[15] = system: K562
[16] = system: UACC-62
[17] = system: OVCAR-8
[18] = system: HCT-15
[19] = system: MDA-MB-435
[20] = system: T47D
[21] = system: CAKI-1
[22] = system: HT-29
[23] = system: MDA-N
[24] = system: 786-0
[25] = system: RXF 393
[26] = system: OVCAR-3
[27] = system: HCC 2998
[28] = system: HOP-62
[29] = system: ACHN
[30] = system: A549
[31] = system: OVCAR-5
[32] = system: MOLT-4
[33] = system: SF-539
[34] = system: TK-10
[35] = system: IGROV-1
[36] = system: SNB-75
[37] = system: UO-31
[38] = system: A498
[39] = system: PC-3
[40] = system: SK-MEL-2
[41] = system: SF-295
[42] = system: M14
[43] = system: U-251
[44] = system: BT-549
[45] = system: SNB-19
[46] = system: DU-145
[47] = system: COLO 205
[48] = system: UACC-257
[49] = system: SK-MEL-28
[50] = system: Hs-578T
[51] = system: SR
[52] = system: LOX IMVI
[53] = system: KM12
[54] = system: CCRF-CEM
[55] = system: RPMI-8226
[56] = system: NCI/ADR-RES
[57] = system: NCI-H226
[58] = system: Malme-3M
[59] = system: HL-60

CCOC(=O)C(=[N+]=[N-])C(=O)CN1C(=O)c2ccccc2C1=O
GI50 [1]: > 100 µM (inactive) | GI50 [2]: > 100 µM (inactive) | GI50 [3]: > 100 µM (inactive) | GI50 [4]: > 100 µM (inactive) | GI50 [5]: > 100 µM (inactive) | GI50 [6]: > 100 µM (inactive) | GI50 [7]: > 100 µM (inactive) | GI50 [8]: > 100 µM (inactive) | GI50 [9]: > 100 µM (inactive) | GI50 [10]: > 100 µM (inactive) | GI50 [11]: > 100 µM (inactive) | GI50 [12]: > 100 µM (inactive) | GI50 [13]: > 100 µM (inactive) | GI50 [14]: > 100 µM (inactive) | GI50 [15]: > 100 µM (inactive) | GI50 [16]: > 100 µM (inactive) | GI50 [17]: > 100 µM (inactive) | GI50 [18]: > 100 µM | GI50 [19]: > 100 µM (inactive) | GI50 [20]: > 100 µM (inactive) | GI50 [21]: > 100 µM (inactive) | GI50 [22]: > 100 µM (inactive) | GI50 [23]: > 100 µM (inactive) | GI50 [24]: > 100 µM (inactive) | GI50 [25]: > 100 µM (inactive) | GI50 [26]: > 100 µM (inactive) | GI50 [27]: > 100 µM (inactive) | GI50 [28]: > 100 µM (inactive) | GI50 [29]: > 100 µM (inactive) | GI50 [30]: > 100 µM (inactive) | GI50 [31]: > 100 µM (inactive) | GI50 [32]: > 100 µM (inactive) | GI50 [33]: > 100 µM (inactive) | GI50 [34]: > 100 µM (inactive) | GI50 [35]: > 100 µM (inactive) | GI50 [36]: > 100 µM (inactive) | GI50 [37]: > 100 µM (inactive) | GI50 [38]: > 100 µM (inactive) | GI50 [39]: > 100 µM (inactive) | GI50 [40]: > 100 µM (inactive) | GI50 [41]: > 100 µM (inactive) | GI50 [42]: > 100 µM (inactive) | GI50 [43]: > 100 µM (inactive) | GI50 [44]: > 100 µM (inactive) | GI50 [45]: > 100 µM (inactive) | GI50 [46]: > 100 µM (inactive) | GI50 [47]: > 100 µM (inactive) | GI50 [48]: > 100 µM (inactive) | GI50 [49]: > 100 µM (inactive) | GI50 [50]: > 100 µM (inactive)

O=c1[nH]/c(=C/c2ccc(OCc3ccccc3)cn2)c(=O)[nH]/c1=C/c1ccc(Cl)cc1
GI50 [1]: 13.9 µM (inactive) | GI50 [2]: 0.723 µM (active) | GI50 [51]: 0.301 µM (active) | GI50 [3]: 0.546 µM (active) | GI50 [4]: 1.79 µM (inactive) | GI50 [52]: > 22.1 µM (inactive) | GI50 [5]: 1.87 µM (inactive) | GI50 [6]: 1.55 µM (inactive) | GI50 [7]: 48.3 µM (inactive) | GI50 [8]: 46.1 µM (inactive) | GI50 [9]: 2.42 µM (inactive) | GI50 [11]: > 100 µM (inactive) | GI50 [53]: 0.895 µM (active) | GI50 [12]: 7.87 µM (inactive) | GI50 [54]: 3.72 µM (inactive) | GI50 [13]: 1.01 µM (active) | GI50 [14]: 4.47 µM (inactive) | GI50 [55]: 3.81 µM (inactive) | GI50 [15]: 0.497 µM (active) | GI50 [16]: 1.94 µM (inactive) | GI50 [17]: > 100 µM (inactive) | GI50 [18]: 0.469 µM | GI50 [19]: 0.21 µM (active) | GI50 [20]: > 100 µM (inactive) | GI50 [21]: 0.45 µM (active) | GI50 [56]: 5.37 µM (inactive) | GI50 [57]: 35.1 µM (inactive) | GI50 [22]: 2.8 µM (inactive) | GI50 [23]: 0.215 µM (active) | GI50 [24]: 1.83 µM (inactive) | GI50 [25]: 4.53 µM (inactive) | GI50 [26]: 0.653 µM (active) | GI50 [58]: 0.624 µM (active) | GI50 [27]: 2.52 µM (inactive) | GI50 [28]: 1.33 µM (inactive) | GI50 [29]: 4.24 µM (inactive) | GI50 [30]: > 84.9 µM (inactive) | GI50 [31]: > 100 µM (inactive) | GI50 [32]: 1.52 µM (inactive) | GI50 [33]: 3.08 µM (inactive) | GI50 [34]: 15.1 µM (inactive) | GI50 [36]: 1.86 µM (inactive) | GI50 [37]: 2.7 µM (inactive) | GI50 [38]: 0.7 µM (active) | GI50 [40]: 4.73 µM (inactive) | GI50 [41]: 0.692 µM (active) | GI50 [59]: 0.726 µM (active) | GI50 [42]: 1.87 µM (inactive) | GI50 [43]: 4.35 µM (inactive) | GI50 [44]: 0.344 µM (active) | GI50 [45]: 5.55 µM (inactive) | GI50 [46]: > 23.9 µM (inactive) | GI50 [47]: 11.9 µM (inactive) | GI50 [48]: 1 µM (active) | GI50 [49]: > 76.7 µM (inactive) | GI50 [50]: 0.804 µM (active)

COc1cccc(C2c3cc4c(cc3OC(NNc3ccccc3)C2C)OCO4)c1OC (configuration not stated)
GI50 [2]: 2.07 µM (inactive) | GI50 [51]: 1.06 µM (active) | GI50 [3]: 4.73 µM (inactive) | GI50 [4]: 3.26 µM (inactive) | GI50 [52]: 16.5 µM (inactive) | GI50 [5]: 23.1 µM (inactive) | GI50 [6]: 19.1 µM (inactive) | GI50 [7]: 9.84 µM (inactive) | GI50 [8]: 17.5 µM (inactive) | GI50 [10]: 3.78 µM (inactive) | GI50 [11]: 3.45 µM (inactive) | GI50 [53]: 1.59 µM (inactive) | GI50 [12]: 10.7 µM (inactive) | GI50 [54]: 3.72 µM (inactive) | GI50 [13]: 14 µM (inactive) | GI50 [14]: 49.1 µM (inactive) | GI50 [55]: 2.92 µM (inactive) | GI50 [15]: 1.49 µM (inactive) | GI50 [16]: 2.78 µM (inactive) | GI50 [17]: 7.6 µM (inactive) | GI50 [18]: 2.18 µM | GI50 [19]: 3.04 µM (inactive) | GI50 [20]: 5.09 µM (inactive) | GI50 [21]: 2.5 µM (inactive) | GI50 [57]: 5.06 µM (inactive) | GI50 [22]: 12 µM (inactive) | GI50 [23]: 5.46 µM (inactive) | GI50 [24]: 19.4 µM (inactive) | GI50 [25]: 3.76 µM (inactive) | GI50 [26]: 4.4 µM (inactive) | GI50 [58]: 12.2 µM (inactive) | GI50 [27]: 2.29 µM (inactive) | GI50 [28]: 3.64 µM (inactive) | GI50 [29]: 1.65 µM (inactive) | GI50 [30]: 3.58 µM (inactive) | GI50 [31]: 6.62 µM (inactive) | GI50 [32]: 2.55 µM (inactive) | GI50 [33]: 4.14 µM (inactive) | GI50 [34]: 2.61 µM (inactive) | GI50 [35]: 4.6 µM (inactive) | GI50 [36]: 11.2 µM (inactive) | GI50 [37]: 2.82 µM (inactive) | GI50 [38]: 14.9 µM (inactive) | GI50 [39]: 1.76 µM (inactive) | GI50 [40]: 10.1 µM (inactive) | GI50 [41]: 0.678 µM (active) | GI50 [59]: 4.05 µM (inactive) | GI50 [42]: 5.06 µM (inactive) | GI50 [43]: 6.04 µM (inactive) | GI50 [44]: 7.28 µM (inactive) | GI50 [45]: 17.6 µM (inactive) | GI50 [46]: 5.19 µM (inactive) | GI50 [47]: 3.77 µM (inactive) | GI50 [48]: 5.06 µM (inactive) | GI50 [49]: 24.2 µM (inactive) | GI50 [50]: 6.35 µM (inactive)
